Results taken from US10537516B2, “Composition for treating skin pigmentation and related methods” (Access Business Group International LLC, priority 2017, dated 2020).
≈ marks a conversion by molar mass, not a printed value. Where “and” joins values, the source holds several entries; their conditions need not be identical. Equal entries are not always repeated. Entries after “also recorded” stand apart in the source; their conditions may differ. Where two headings read alike, the source gives them in different places. Marks after values point to notes of the source that are not given here.

Columns and labels:
B16-F10 cells [1] = experiment: Melanin synthesis inhibition in B16-F10 cells; assay type: cell-based, Mus musculus (mouse); details: 100 μg/mL, 72 hours, average of two wells
Experimental: (§1) The effects of the present skin treatment compounds and plant extracts were evaluated in vitro using a B16-F10 (ATCC# CRL-6475) cell model. The B16-F10 cell model is a Mus musculus (mouse) melanoma skin cell line. The skin treatment compounds and plant extracts were evaluated for cell toxicity, inhibition of melanin synthesis, inhibition of tyrosinase enzyme activity, and elimination of existing melanin in B16-F10 cells. Tables 1 and 2 below list the 5 skin treatment compounds and 17 skin treatment plant extracts evaluated, respectively.
The ability of the skin treatment compounds and plant extracts to inhibit melanin synthesis was evaluated. Melanin is the pigment in skin cells that is responsible for coloring of the skin and various pigmentation disorders, such as age spots and freckles. Inhibition of melanin synthesis may result in lightening of the skin color and/or inhibit further darkening of the skin color. Arbutin is a conventional plant-derived compound used in skin lightening treatments and was therefore selected for use as a positive control.
(§2) B16-F10 cells were trypsinized using Trypsin-EDTA (GIBCO Cat. #25200-072) and cell density was determined. The cell slurry was diluted to a concentration of 18,000 cells per milliliter (mL) in a growth media containing RPMI 1640 (GIBCO Cat. #22400-089) supplemented with fetal bovine serum (GIBCO Cat. #10099-141). The diluted cell slurry was dispensed into the wells of a 24 well cell culture plate (BD Falcon Cat. #353047) at 1 mL per well (18,000 cells/well). The cells were incubated overnight at 37° C. and 5% CO2 in humid conditions.
The plated cells were treated by preparing a 200× dilution of each skin lightening compound, plant extract, and arbutin (i.e., the positive control; Sigma Cat. #A4256) in 100% dimethyl sulfoxide (DMSO; Sigma Cat. #D2650). 5 μL of the 200× dilution was added to each well. The treated cells were incubated for 72 hours at 37° C. and 5% CO2 in humid conditions. The skin lightening compounds and plant extracts were evaluated at concentrations of 0 (untreated), 10, 50, and 100 μg/mL. Arbutin was evaluated at concentrations of 0 (untreated), 25, 125, and 250 μg/mL.
When the treatment period was completed, the medium from each well was discarded and the cells were washed once with 1 mL per well of DPBS (Dulbecco's Phosphate-Buffered Saline; Biosera Cat. #LM-S2041). […] The UV absorbance of each well was determined using a plate reader with the primary wave length set to 400 nm.
Melanin synthesis inhibition was determined using the UV absorbance at 400 nm according to the following equation: % Inh=(Max signal−Compound signal)/(Max signal−Min signal)×100

B16-F10 cells [2] = experiment: Melanin elimination in forskolin/8-MOP pre-treated B16-F10 cells; assay type: cell-based, Mus musculus (mouse); details: 72 hours, B16-F10 cells pre-treated with forskolin and 8-MOP; for % Melanin Elimination, skin treatment compound/plant extract: 100 μg/mL, average of two wells
Experimental: as §1
The ability of the skin treatment compounds and plant extracts to eliminate existing melanin within skin cells was evaluated. Melanin is the pigment in skin cells that is responsible for coloring of the skin and various pigmentation disorders, such as age spots and freckles. Elimination of existing melanin inside a cell may result in lightening of the skin color and/or inhibit further darkening of the skin color. […]
as §2, with “Trypsin-EDTA” for “Trypsin-EDTA (GIBCO Cat. #25200-072)”, “1640” for “1640 (GIBCO Cat. #22400-089)”, “serum.” for “serum (GIBCO Cat. #10099-141).”, “plate” for “plate (BD Falcon Cat. #353047)”
Following the overnight incubation, the medium was discarded and replaced with 1 mL per well of growth media including 50 μM forskolin (Sigma Cat. #F6886) and 10 μM 8-Methoxypsoralen (8-MOP; Alfa Aesar Cat. #A17108). The cells were then incubated for 72 hours at 37° C. and 5% CO2 in humid conditions.
The medium in each well was discarded and replaced with 1 mL/well. 5 μL of the 200× dilution was added to each well. The treated cells were incubated for 72 hours at 37° C. and 5% CO2 in humid conditions. The skin lightening compounds and plant extracts were evaluated at concentrations of 0 (untreated), 10, 50, and 100 μg/mL. […]
When the treatment period was completed, the medium from each well was discarded and the cells were washed once with 1 mL per well of DPBS. The DPBS wash was removed and 150 μL of 1N sodium hydroxide was added to each well for 30 minutes while the cells were incubated at 80° C. to lyse the cells. Next, 145 μL from each well was transferred to a UV plate and the remaining 5 μL was tested to determine the protein concentration. The UV absorbance of each well was determined using a plate reader with the primary wave length set to 400 nm.
Melanin elimination was determined using the UV absorbance at 400 nm according to the following equation: % Inh=(Max signal−Compound signal)/(Max signal−Min signal)×100
Where “% Inh” is the percent of melanin eliminated from the cell, the “Max signal” is the UV absorption for cells treated with forskolin and 8-MOP, and the “Min signal” is the UV absorption of untreated cells.

B16-F10 cells [3] = experiment: CellTiter-Glo (CTG) Luminescent Cell Viability Assay (cell toxicity); assay type: cell-based, Mus musculus (mouse); details: for IC50: Mus musculus, read-out: IC50 cellular toxicity, skin treatment compound/plant extract
Experimental: The toxicity of the skin treatment compounds and plant extracts was evaluated using the CellTiter-Glo® (CTG) Luminescent Cell Viability Assay from Promega Corporation. The assay determines the number of viable cells in culture based on quantitation of the ATP present, which is indicative of the presence of metabolically active cells.
The CellTiter-Glo® reagent was added to the cells and the luminescence was obtained according to the assay instructions provided by Promega Corporation. The IC50 was calculated for each skin treatment compound or plant extract and the corresponding positive control.

tyrosinase enzyme = molecular target: T1, tyrosinase enzyme (Mus musculus, UniProt P11344); experiment: Tyrosinase enzyme activity inhibition in treated B16-F10 cells (L-DOPA); assay type: cell-based; details: 72 hours
T1 construct: endogenous in cells; host or cells: B16-F10 (ATCC# CRL-6475) mouse melanoma cells
T1 sequence (P11344 19-533): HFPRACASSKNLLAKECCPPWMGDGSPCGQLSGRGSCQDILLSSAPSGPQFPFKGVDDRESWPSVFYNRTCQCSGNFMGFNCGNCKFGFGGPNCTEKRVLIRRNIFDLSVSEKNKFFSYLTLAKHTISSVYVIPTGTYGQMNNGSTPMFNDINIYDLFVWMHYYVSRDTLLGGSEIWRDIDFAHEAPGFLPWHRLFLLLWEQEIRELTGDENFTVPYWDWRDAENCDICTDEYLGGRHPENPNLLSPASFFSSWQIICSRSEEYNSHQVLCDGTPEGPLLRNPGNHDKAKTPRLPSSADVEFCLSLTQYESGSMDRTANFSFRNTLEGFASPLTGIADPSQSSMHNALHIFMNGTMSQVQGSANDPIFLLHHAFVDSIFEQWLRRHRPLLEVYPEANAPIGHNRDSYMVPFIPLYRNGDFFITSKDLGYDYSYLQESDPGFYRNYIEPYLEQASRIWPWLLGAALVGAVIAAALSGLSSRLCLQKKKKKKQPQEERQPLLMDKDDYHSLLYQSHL
Experimental: The ability of the skin treatment compounds and plant extracts to inhibit tyrosinase enzyme activity was evaluated. Tyrosinase enzyme is involved in melanin production and thus inhibition of tyrosinase may suppress melanin production, which may result in lightening of skin color and/or inhibition of further darkening of skin color. Arbutin is a conventional plant-derived compound used in skin lightening treatments and was therefore selected for use as a positive control. B16-F10 cells were trypsinized using Trypsin-EDTA and cell density was determined. The cell slurry was diluted to a concentration of 18,000 cells per milliliter (mL) in a growth media containing RPMI 1640 supplemented with fetal bovine serum. […] Arbutin was evaluated at concentrations of 0 (untreated), 25, 125, and 250 μg/mL. […] The UV absorbance of each well was determined using a plate reader with the primary wave length set to 475 nm. Tyrosinase inhibition was determined using the UV absorbance at 475 nm according to the following equation: % Inh=(Max signal−Compound signal)/(Max signal−Min signal)×100 Where “% Inh” is the percent inhibition of tyrosinase, the “Max signal” is the UV absorption for cells treated with L-DOPA, and the “Min signal” is the UV absorption of cells not treated with L-DOPA.

[4] = B16-F10 cells, 72 hours, 0.01 to 100 ug/mL, CellTiter-Glo

O=C(O)CCCC[C@@H]1CCSS1 (racemic) [Lipoic acid]
% Melanin Synthesis Inhibition, skin treatment compound/plant extract (B16-F10 cells [1]): 30.3** %
% Melanin Elimination, skin treatment compound/plant extract (B16-F10 cells [2]): 65.7%
IC50 cellular toxicity, skin treatment compound/plant extract (B16-F10 cells [3]; [4]): >100 mg/L
% Tyrosinase Inhibition, skin treatment compound/plant extract (tyrosinase enzyme; 100 μg/mL, average of two wells): 98.6%

OC[C@H]1O[C@@H](Oc2ccc(O)cc2)[C@H](O)[C@@H](O)[C@@H]1O [Arbutin]
% Tyrosinase Inhibition (Arbutin) (tyrosinase enzyme; arbutin 125 μg/mL, control of the same line): 38.3% and 52.8%

CN[C@@H](C)[C@H]1[C@H](O)C[C@@]2(C)[C@@H]3CC[C@H]4C(C)(C)[C@@H](NC)CC[C@@]45C[C@@]35CC[C@]12C [Cyclovirobuxine D]
% Melanin Synthesis Inhibition, skin treatment compound/plant extract (B16-F10 cells [1]): 53.2%
% Melanin Elimination, skin treatment compound/plant extract (B16-F10 cells [2]): 92.4%
IC50 cellular toxicity, skin treatment compound/plant extract (B16-F10 cells [3]; [4]): >100 mg/L

Oc1ccc(O)cc1 [Hydroquinone, reference compound]
% Melanin Elimination (hydroquinone control) (B16-F10 cells [2]; hydroquinone 100 μg/mL): 70.6%
IC50 cellular toxicity, Hydroquinone IC50 (corresponding positive control) (B16-F10 cells [3]; B16-F10 cells, 72 hours, hydroquinone positive control run with the substance of the same line): (7.0) μg/mL; also recorded: (4.2) μg/mL; also recorded: (4.1) μg/mL

COc1cc2c3c(c1OC)-c1ccccc1C[C@H]3N(C)CC2 [Nuciferine]
inhibition at 100 µg/mL (B16-F10 cells [1]; Mus musculus, read-out: % Melanin Synthesis Inhibition, skin treatment compound/plant extract): 104%
% Melanin Elimination, skin treatment compound/plant extract (B16-F10 cells [2]): 34.1%
IC50 (B16-F10 cells [3]; B16-F10, 72 h): 62.2 mg/L (≈ 211 µM)

C/C=C1/[C@H](O[C@@H]2O[C@H](CO)[C@@H](O)[C@H](O)[C@H]2O)OC=C(C(=O)OC)[C@H]1CC(=O)OCCc1ccc(O)c(O)c1 [Oleuropein]
% Melanin Elimination, skin treatment compound/plant extract (B16-F10 cells [2]): 37.0%
IC50 (B16-F10 cells [3]; [4]): 90.3 mg/L (≈ 167 µM)

CC1=C2C[C@H]3[C@@H](CC(=O)[C@H]4C[C@@H](O)CC[C@@]43C)[C@@H]2CC[C@]12O[C@@H]1C[C@H](C)CN[C@H]1[C@H]2C [Peimisine]
% Melanin Synthesis Inhibition, skin treatment compound/plant extract (B16-F10 cells [1]): 62.1%
% Melanin Elimination, skin treatment compound/plant extract (B16-F10 cells [2]): 23.8%
IC50 cellular toxicity, skin treatment compound/plant extract (B16-F10 cells [3]; [4]): >50 mg/L
